# Experimental data reported in PubChem BioAssay (NCI).
#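 48-hour exposure; five concentrations; linearly interpolated endpoints. The concentration for full growth arrest is given as TGI.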
# Tests used:
# Experiment in all cases: NCI-60 cell line screen, 48 h
# HOP-92 NSCLC = system: HOP-92 NSCLC
# A549 NSCLC = system: A549 NSCLC
# LOX IMVI melanoma = system: LOX IMVI melanoma
# SF-295 CNS = system: SF-295 CNS
# DU-145 prostate = system: DU-145 prostate
# UO-31 renal = system: UO-31 renal
# IGROV1 ovarian = system: IGROV1 ovarian
# ACHN renal = system: ACHN renal
# HS 578T breast = system: HS 578T breast
# OVCAR-5 ovarian = system: OVCAR-5 ovarian
# HCT-116 colon = system: HCT-116 colon
# TK-10 renal = system: TK-10 renal
# NCI-H23 lung = system: NCI-H23 lung
# SNB-19 CNS = system: SNB-19 CNS
# SK-OV-3 ovarian = system: SK-OV-3 ovarian
# SK-MEL-5 melanoma = system: SK-MEL-5 melanoma
# OVCAR-3 ovarian = system: OVCAR-3 ovarian
# U251 CNS = system: U251 CNS
# HT29 colon = system: HT29 colon
# 786-0 renal = system: 786-0 renal
# MCF7 breast = system: MCF7 breast
# T-47D breast = system: T-47D breast
# PC-3 prostate = system: PC-3 prostate
# SK-MEL-2 melanoma = system: SK-MEL-2 melanoma
# MALME-3M melanoma = system: MALME-3M melanoma
# K-562 leukemia = system: K-562 leukemia
# OVCAR-4 ovarian = system: OVCAR-4 ovarian
# MDA-N = system: MDA-N
# HCC-2998 colon = system: HCC-2998 colon
# UACC-257 melanoma = system: UACC-257 melanoma
# HCT-15 colon = system: HCT-15 colon
# EKVX NSCLC = system: EKVX NSCLC
# NCI-H226 lung = system: NCI-H226 lung
# RXF 393 renal = system: RXF 393 renal
# HL-60(TB) leukemia = system: HL-60(TB) leukemia
# CAKI-1 renal = system: CAKI-1 renal
# SW-620 colon = system: SW-620 colon
# KM12 colon = system: KM12 colon
# M14 melanoma = system: M14 melanoma
# BT-549 breast = system: BT-549 breast
# SF-268 CNS = system: SF-268 CNS
# SNB-75 CNS = system: SNB-75 CNS
# SF-539 CNS = system: SF-539 CNS
# MDA-MB-231 breast = system: MDA-MB-231 breast
# MDA-MB-435 = system: MDA-MB-435
# CCRF-CEM leukemia = system: CCRF-CEM leukemia
# SN12C renal = system: SN12C renal
# HOP-62 NSCLC = system: HOP-62 NSCLC
# COLO 205 colon = system: COLO 205 colon
# RPMI-8226 leukemia = system: RPMI-8226 leukemia
# NCI/ADR-RES ovarian = system: NCI/ADR-RES ovarian
# OVCAR-8 ovarian = system: OVCAR-8 ovarian
# MOLT-4 leukemia = system: MOLT-4 leukemia
# UACC-62 melanoma = system: UACC-62 melanoma
# NCI-H460 lung = system: NCI-H460 lung
# SR leukemia = system: SR leukemia
# A498 renal = system: A498 renal
# SK-MEL-28 melanoma = system: SK-MEL-28 melanoma
# NCI-H522 lung = system: NCI-H522 lung
compound,measurement,setting,value
C=C(Cl)C(=CCl)CCC(Br)C(C)(C)Cl (mixture of isomers),TGI,HOP-92 NSCLC,> 10 µM
same,TGI,A549 NSCLC,> 10 µM
same,TGI,LOX IMVI melanoma,> 10 µM
same,TGI,SF-295 CNS,> 10 µM
same,TGI,DU-145 prostate,> 10 µM
same,TGI,UO-31 renal,> 10 µM
same,TGI,IGROV1 ovarian,> 10 µM
same,TGI,ACHN renal,> 10 µM
same,TGI,HS 578T breast,> 10 µM
same,TGI,OVCAR-5 ovarian,> 10 µM
same,TGI,HCT-116 colon,> 10 µM
same,TGI,TK-10 renal,> 10 µM
same,TGI,NCI-H23 lung,> 10 µM
same,TGI,SNB-19 CNS,> 10 µM
same,TGI,SK-OV-3 ovarian,> 10 µM
same,TGI,SK-MEL-5 melanoma,> 10 µM
same,TGI,OVCAR-3 ovarian,> 10 µM
same,TGI,U251 CNS,> 10 µM
same,TGI,HT29 colon,> 10 µM
same,TGI,786-0 renal,> 10 µM
same,TGI,MCF7 breast,> 10 µM
same,TGI,T-47D breast,> 10 µM
same,TGI,PC-3 prostate,> 10 µM
same,TGI,SK-MEL-2 melanoma,> 10 µM
same,TGI,MALME-3M melanoma,> 10 µM
same,TGI,K-562 leukemia,> 10 µM
same,TGI,OVCAR-4 ovarian,> 10 µM
same,TGI,MDA-N,> 10 µM
same,TGI,HCC-2998 colon,> 10 µM
same,TGI,UACC-257 melanoma,> 10 µM
same,TGI,HCT-15 colon,> 10 µM
same,TGI,EKVX NSCLC,> 10 µM
same,TGI,NCI-H226 lung,> 10 µM
same,TGI,RXF 393 renal,> 10 µM
same,TGI,HL-60(TB) leukemia,> 10 µM
same,TGI,CAKI-1 renal,> 10 µM
same,TGI,SW-620 colon,> 10 µM
same,TGI,KM12 colon,> 10 µM
same,TGI,M14 melanoma,> 10 µM
same,TGI,BT-549 breast,> 10 µM
same,TGI,SF-268 CNS,> 10 µM
same,TGI,SNB-75 CNS,> 10 µM
same,TGI,SF-539 CNS,> 10 µM
same,TGI,MDA-MB-231 breast,> 10 µM
same,TGI,MDA-MB-435,> 10 µM
same,TGI,CCRF-CEM leukemia,6.89 µM
same,TGI,SN12C renal,> 10 µM
same,TGI,HOP-62 NSCLC,> 10 µM
same,TGI,COLO 205 colon,> 10 µM
same,TGI,RPMI-8226 leukemia,> 10 µM
same,TGI,NCI/ADR-RES ovarian,> 10 µM
same,TGI,OVCAR-8 ovarian,> 10 µM
same,TGI,MOLT-4 leukemia,> 10 µM
same,TGI,UACC-62 melanoma,> 10 µM
same,TGI,NCI-H460 lung,> 10 µM
same,TGI,SR leukemia,> 10 µM
same,TGI,A498 renal,> 10 µM
same,TGI,SK-MEL-28 melanoma,> 10 µM
same,TGI,NCI-H522 lung,> 10 µM
CN1C(=O)c2ccccc2OC12C=Cc1c(ccc3ccccc13)O2 (configuration not stated),TGI,HOP-92 NSCLC,8.47 µM
same,TGI,A549 NSCLC,40.1 µM
same,TGI,LOX IMVI melanoma,22.9 µM
same,TGI,SF-295 CNS,12.7 µM
same,TGI,DU-145 prostate,> 45 µM
same,TGI,UO-31 renal,35.8 µM
same,TGI,IGROV1 ovarian,30.8 µM
same,TGI,ACHN renal,10.2 µM
same,TGI,HS 578T breast,33.1 µM
same,TGI,OVCAR-5 ovarian,27.4 µM
same,TGI,HCT-116 colon,14.2 µM
same,TGI,TK-10 renal,> 61 µM
same,TGI,NCI-H23 lung,16 µM
same,TGI,SNB-19 CNS,> 59.4 µM
same,TGI,SK-OV-3 ovarian,27.4 µM
same,TGI,SK-MEL-5 melanoma,23 µM
same,TGI,OVCAR-3 ovarian,19.1 µM
same,TGI,U251 CNS,> 34 µM
same,TGI,HT29 colon,10.3 µM
same,TGI,786-0 renal,25.7 µM
same,TGI,MCF7 breast,> 44.6 µM
same,TGI,T-47D breast,> 25.7 µM
same,TGI,PC-3 prostate,16.8 µM
same,TGI,SK-MEL-2 melanoma,22 µM
same,TGI,MALME-3M melanoma,15.6 µM
same,TGI,K-562 leukemia,> 31.5 µM
same,TGI,OVCAR-4 ovarian,> 52.7 µM
same,TGI,MDA-N,10.4 µM
same,TGI,HCC-2998 colon,16 µM
same,TGI,UACC-257 melanoma,36.3 µM
same,TGI,HCT-15 colon,> 25.5 µM
same,TGI,EKVX NSCLC,10.7 µM
same,TGI,NCI-H226 lung,48.6 µM
same,TGI,RXF 393 renal,31.1 µM
same,TGI,HL-60(TB) leukemia,17.6 µM
same,TGI,CAKI-1 renal,33.3 µM
same,TGI,SW-620 colon,> 72.6 µM
same,TGI,KM12 colon,8.64 µM
same,TGI,M14 melanoma,17.1 µM
same,TGI,BT-549 breast,> 56.6 µM
same,TGI,SF-268 CNS,31.4 µM
same,TGI,SNB-75 CNS,33.1 µM
same,TGI,SF-539 CNS,50.4 µM
same,TGI,MDA-MB-231 breast,44.6 µM
same,TGI,MDA-MB-435,> 24.5 µM
same,TGI,CCRF-CEM leukemia,> 29.6 µM
same,TGI,SN12C renal,> 57.1 µM
same,TGI,HOP-62 NSCLC,27.3 µM
same,TGI,COLO 205 colon,10.8 µM
same,TGI,RPMI-8226 leukemia,> 71.9 µM
same,TGI,NCI/ADR-RES ovarian,6.79 µM
same,TGI,OVCAR-8 ovarian,17.6 µM
same,TGI,MOLT-4 leukemia,17.2 µM
same,TGI,UACC-62 melanoma,> 47.1 µM
same,TGI,NCI-H460 lung,42.5 µM
same,TGI,SR leukemia,> 100 µM
same,TGI,A498 renal,44.9 µM
same,TGI,SK-MEL-28 melanoma,> 67.6 µM
same,TGI,NCI-H522 lung,6.27 µM
CC1(C)S[C@@H]2[C@H](NC(=O)C3(N)CCCCC3)C(=O)N2[C@H]1C(=O)O,TGI,HOP-92 NSCLC,> 100 µM
same,TGI,A549 NSCLC,> 100 µM
same,TGI,LOX IMVI melanoma,> 100 µM
same,TGI,SF-295 CNS,> 100 µM
same,TGI,DU-145 prostate,> 100 µM
same,TGI,UO-31 renal,> 100 µM
same,TGI,IGROV1 ovarian,> 100 µM
same,TGI,ACHN renal,> 100 µM
same,TGI,HS 578T breast,> 100 µM
same,TGI,OVCAR-5 ovarian,> 100 µM
same,TGI,HCT-116 colon,> 100 µM
same,TGI,TK-10 renal,> 100 µM
same,TGI,NCI-H23 lung,> 100 µM
same,TGI,SNB-19 CNS,> 100 µM
same,TGI,SK-OV-3 ovarian,> 100 µM
same,TGI,SK-MEL-5 melanoma,> 100 µM
same,TGI,OVCAR-3 ovarian,> 100 µM
same,TGI,U251 CNS,> 100 µM
same,TGI,HT29 colon,> 100 µM
same,TGI,786-0 renal,> 100 µM
same,TGI,MCF7 breast,> 100 µM
same,TGI,T-47D breast,> 100 µM
same,TGI,PC-3 prostate,> 100 µM
same,TGI,SK-MEL-2 melanoma,> 100 µM
same,TGI,MALME-3M melanoma,> 100 µM
same,TGI,K-562 leukemia,> 100 µM
same,TGI,OVCAR-4 ovarian,> 100 µM
same,TGI,MDA-N,> 100 µM
same,TGI,HCC-2998 colon,> 100 µM
same,TGI,UACC-257 melanoma,> 100 µM
same,TGI,HCT-15 colon,> 100 µM
same,TGI,EKVX NSCLC,> 100 µM
same,TGI,NCI-H226 lung,> 100 µM
same,TGI,RXF 393 renal,> 100 µM
same,TGI,HL-60(TB) leukemia,> 100 µM
same,TGI,CAKI-1 renal,> 100 µM
same,TGI,SW-620 colon,> 100 µM
same,TGI,KM12 colon,> 100 µM
same,TGI,M14 melanoma,> 100 µM
same,TGI,BT-549 breast,> 100 µM
same,TGI,SF-268 CNS,> 100 µM
same,TGI,SNB-75 CNS,> 100 µM
same,TGI,SF-539 CNS,> 100 µM
same,TGI,MDA-MB-231 breast,> 100 µM
same,TGI,MDA-MB-435,> 100 µM
same,TGI,CCRF-CEM leukemia,> 100 µM
same,TGI,SN12C renal,> 100 µM
same,TGI,HOP-62 NSCLC,> 100 µM
same,TGI,COLO 205 colon,> 100 µM
same,TGI,RPMI-8226 leukemia,> 100 µM
same,TGI,NCI/ADR-RES ovarian,> 100 µM
same,TGI,OVCAR-8 ovarian,> 100 µM
same,TGI,MOLT-4 leukemia,> 100 µM
same,TGI,UACC-62 melanoma,> 100 µM
same,TGI,NCI-H460 lung,> 100 µM
same,TGI,SR leukemia,> 100 µM
same,TGI,A498 renal,> 100 µM
same,TGI,SK-MEL-28 melanoma,> 100 µM
same,TGI,NCI-H522 lung,> 100 µM
